Like-named read-outs stand apart in the source and are kept apart here.
What was measured:
AMPA receptor = assay: AMPA-induced intraneuronal calcium entry-suppressing action (primary culture of embryonic rat cerebral cortex neurons, Fura 2-AM); assay type: cell-based; conditions: AMPA stimulation, intracellular calcium increase, read-out: IC50 for AMPA inhibition
Text: The present inventors conducted the following tests, in order to confirm the effects of the compounds of the present invention. With regard to the AMPA receptor inhibitory action of the compounds, AMPA-induced intraneuronal calcium entry-suppressing action was examined using a primary culture system of embryonic rat cerebral cortex neurons. With regard to the anticonvulsant action of the compounds, 6 Hz (44 mA) stimulation-induced convulsions known as a treatment-resistant convulsion model were used. AMPA inhibitor-induced central nervous system depressant action such as loss of coordination was evaluated using a rotarod performance test.
AMPA-Induced Intraneuronal Calcium Entry-Suppressing Action
<Culture conditions> Whole fetuses were removed from the uteri of Wistar rats at embryonic day 18 (Charles River Japan) anesthetized with isoflurane. Whole brains were removed from the whole fetuses, and the cerebral cortex was separated in Leibovitz's L-15 medium or Hanks balanced salt solution containing 20% fetal bovine serum. The resulting material was treated with trypsin/DNase solution at 37° C. for 45 to 60 minutes. After the serum was added to stop the trypsin reaction, the resulting material was centrifuged at 1200 to 1500 rpm for 3 to 5 minutes. After the supernatant was removed, Neurobasal medium (containing 2% B-27 supplement and the like; hereinafter “Neurobasal medium”) was added, and the cells were uniformly dispersed by gently pipetting. The cell suspension was slightly stirred, and then filtered through a nylon mesh filter. Viable cells were counted using a hemocytometer, and diluted with Neurobasal medium to 8 to 10×10^5 cells/mL. The cells were seeded into 96 well plates at 100 μL per well and cultured in a CO2 incubator (5% CO2, 37° C.). The medium was replaced after 24 hours, and neurons cultured for 7 to 21 days were used.
On the day of the assay, the medium was removed and replaced with a calcium measurement solution containing 5 to 10 μmol/L of Fura 2-AM (140 mmol/L sodium chloride, 5 mmol/L potassium chloride, 2 mmol/L magnesium chloride, 3 mmol/L calcium chloride, 24 mmol/L D(+)-glucose, 10 mmol/L HEPES, 1 μmol/L MK-801, pH 7.4), and the cells were treated in a CO2 incubator (5% CO2, 37° C.) for 1 to 2 hours. The calcium measurement solution containing the Fura-2 AM solution was subsequently removed, and the neurons in each well were washed twice with the calcium measurement solution for each well, and then 50 μL of the calcium measurement solution was added to each well. Subsequently, 50 μL of a test compound or medium prepared at a concentration 3-fold higher than the final concentration was added, and the cells were pre-treated for about 15 minutes. The plates were subsequently placed on the Fluorescence Drug Screening System 6000 (Hamamatsu Photonics K.K.). The cells were stimulated by adding to each well 50 μL of an AMPA stimulating solution prepared to 3.3 μmol/L with the calcium measurement solution. Changes in calcium concentration were measured as the changes in fluorescence intensity at excitation wavelengths of 340 nm and 380 nm (measurement wavelength: 540 nm). The rate of change of the intracellular calcium concentration was calculated according to the following equation: Rate of increase of the intracellular calcium concentration (% control)=(Tpost−Tpre)/(Cpost−Cpre)×100
wherein Tpost: the proportion of fluorescence of sample wells after stimulation; Tpro: the proportion of fluorescence of sample wells before stimulation; Cpost: the proportion of fluorescence of control wells after stimulation; and Cpre: the proportion of fluorescence of control wells before stimulation.
The IC50 value of the test compound for AMPA inhibition was determined from the rates of increase of the intracellular calcium concentration at various concentrations.

male ddY mice [1] = assay: Rotarod performance test-1; assay type: in vivo; conditions: oral, 25 minutes after administration, dose at which time of fall is reduced to 50% of medium control
Procedure: (§1) With regard to the AMPA receptor inhibitory action of the compounds, AMPA-induced intraneuronal calcium entry-suppressing action was examined using a primary culture system of embryonic rat cerebral cortex neurons. […] AMPA inhibitor-induced central nervous system depressant action such as loss of coordination was evaluated using a rotarod performance test.
Rotarod Performance Test-1
(§2) A rotarod (MK-660C from Muromachi Kikai Co., Ltd.) was used for the measurement. The rod (bar) was controlled to be gradually accelerated from its stationary state to a speed of 40 rotations/minute after 180 seconds. As the animals, 5 or 6-week-old male ddY mice (Japan SLC, Inc.) were used. On the day on which the test was performed, the mice were trained under the above-described measurement conditions, and mice that were able to ride on the rod for 1 minute or longer with good reproducibility were selected and subjected to the test.
Each of the compounds was dissolved in a medium (a solution prepared by adding DMSO to a 0.5% methylcellulose solution to a final concentration of 10%. As required, 0.5 to 5% of 1 mol/L hydrochloric acid and 5% Cremophor™ were added), and then orally administered to the mice in optimum four doses between 0.5 to 10 mg/kg. As the control, only the medium was orally administered. After a lapse of 25 minutes from the oral administration of each compound, the mice were subjected to the rotarod performance test. Five to twenty-five mice were used for each compound group.

male ddY mice [2] = assay: Murine 6 Hz convulsion models (6 Hz, 44 mA corneal stimulation); assay type: in vivo; conditions: for ED50: Mus musculus, 25 min; for Therapeutic Index: TD50/ED50 (rotarod test-1 / 6 Hz convulsion model)
Procedure: as §1
Immediately after the rotarod performance test-1 was completed, the cornea was stimulated by passing an electrical current (6 Hz, 44 mA, 0.2-millisecond pulse, for 3 seconds) from a copper electrode moistened with physiological saline, and the presence or absence of the development of a seizure was observed. The seizure was determined by the development of akinesia, jaw and forelimb clonus, whisker tremors, and Straub tail.
Further, for the purpose of evaluating the safety margin of each of the compounds of the present invention, the therapeutic index (TD50/ED50) was calculated by comparing the seizure inhibitory action (ED50) in the 6 Hz convulsion models and the neurotoxic action (TD50) in the rotarod performance test-1.

male ddY mice [3] = assay: Rotarod performance test-2; assay type: in vivo; conditions: for Time of Fall: mice, oral at the ED50 dose of the 6 Hz model, 25 minutes after administration; for Ratio Relative to the Control Compound: time of fall relative to control compound
Procedure: Rotarod Performance Test-2
as §2
As the control, only the medium was orally administered. After a lapse of 25 minutes from the oral administration of each compound, the mice were subjected to the rotarod performance test. Five or six mice were used for each compound group. For each compound, the time until the mice fell from the rotarod was measured.

[4] = mice, 6 Hz 44 mA stimulation-induced seizure, oral, after rotarod test-1 (25 minutes after administration), read-out: ED50

Compound	IC50 (AMPA receptor) [µM]	TD50 (male ddY mice [1])	ED50 (male ddY mice [2]; [4]) [mg/kg]	Therapeutic Index (male ddY mice [2]; mice)	Time of Fall (male ddY mice [3]; Table 4) [s]	Ratio Relative to the Control Compound (male ddY mice [3]; Table 4)	ED50 (male ddY mice [2]; po) [mg/kg]	Time of Fall (male ddY mice [3]; Table 3) [s]	Ratio Relative to the Control Compound (male ddY mice [3]; Table 3)
COc1ncc(-n2c3c(cc(-c4cccc(F)c4C#N)c2=O)-c2ncccc2OC3)cn1 [Example 5, 2-fluoro-6-(7-(2-methoxypyrimidin-5-yl)-8-oxo-7,8-dihydro-6H-pyrano[3,2-b:5,4-b′]dipyridin-9-yl)benzonitrile]	0.0318	6.53 mg/kg, p.o.	3.23	2.02	108.7	7.6	–	–	–
Cc1ccc(-n2c3c(cc(-c4cccc(F)c4C#N)c2=O)-c2ncccc2OC3)cn1 [Example 3, 2-fluoro-6-(7-(6-methylpyridin-3-yl)-8-oxo-7,8-dihydro-6H-pyrano[3,2-b:5,4-b′]dipyridin-9-yl)benzonitrile]	0.0104	2.47 mg/kg, p.o.	–	2.04	–	–	1.21	124.7	10.2
O=c1c(-c2c(F)cccc2F)cc2c(n1-c1cccnc1)COc1cccnc1-2 [Referential Example 1, 9-(2,6-difluorophenyl)-7-(pyridin-3-yl)-6H-pyrano[3,2-b:5,4-b′]dipyridin-8(7H)-one]	0.0441	5.16 mg/kg, p.o.	1.41	3.66	–	–	–	110.7	9.1
N#Cc1c(F)ccc(F)c1-c1cc2c(n(-c3cccnc3)c1=O)COc1cccnc1-2 [Example 19, 3,6-difluoro-2-(8-oxo-7-(pyridin-3-yl)-7,8-dihydro-6H-pyrano[3,2-b:5,4-b′]dipyridin-9-yl)benzonitrile]	0.0234	3.25 mg/kg, p.o.	–	1.63	121.7	8.5	2	–	–
N#Cc1ncccc1-c1cc2c(n(-c3ccccc3)c1=O)COc1cc(F)cnc1-2 [Example 13, 3-(3-fluoro-8-oxo-7-phenyl-7,8-dihydro-6H-pyrano[3,2-b:5,4-b′]dipyridin-9-yl)picolinonitrile]	0.0675	3.89 mg/kg, p.o.	–	1.73	–	–	2.25	84.8	7.0
N#Cc1ncccc1-c1cc2c(n(-c3ccc(F)cc3)c1=O)COc1cccnc1-2 [Example 11, 3-(7-(4-fluorophenyl)-8-oxo-7,8-dihydro-6H-pyrano[3,2-b:5,4-b′]dipyridin-9-yl)picolinonitrile]	0.0263	5.05 mg/kg, p.o.	1.69	2.99	–	–	–	114.7	9.4
N#Cc1c(F)cccc1-c1cc2c(n(-c3cncnc3)c1=O)COc1cccnc1-2 [Example 18, 2-fluoro-6-(8-oxo-7-(pyrimidin-5-yl)-7,8-dihydro-6H-pyrano[3,2-b:5,4-b′]dipyridin-9-yl)benzonitrile]	0.029	4.03 mg/kg, p.o.	–	2.02	102.2	7.1	2	–	–
O=c1c(-c2ccccc2Cl)cc2c(n1-c1cccnc1)COc1cccnc1-2 [Example 1, 9-(2-chlorophenyl)-7-(pyridin-3-yl)-6H-pyrano[3,2-b:5,4-b′]dipyridin-8(7H)-one]	0.0335	3.09 mg/kg, p.o.	–	1.49	–	–	2.08	56.3	4.6
N#Cc1nccnc1-c1cc2c(n(-c3ccsc3)c1=O)COc1cccnc1-2 [Example 8, 3-(8-oxo-7-(thiophen-3-yl)-7,8-dihydro-6H-pyrano[3,2-b:5,4-b′]dipyridin-9-yl)pyrazine-2-carbonitrile]	0.0701	>8 mg/kg, p.o.	4.85	>1.65	–	–	–	65.8	5.4
Cc1ccc(-n2c3c(cc(-c4cccc(F)c4Cl)c2=O)-c2ncccc2OC3)cn1 [Example 4, 9-(2-chloro-3-fluorophenyl)-7-(6-methylpyridin-3-yl)-6H-pyrano[3,2-b:5,4-b′]dipyridin-8(7H)-one]	0.0283	3.90 mg/kg, p.o.	–	1.67	–	–	2.33	73.2	6.0
COc1cncc(-n2c3c(cc(-c4cccc(F)c4C#N)c2=O)-c2ncccc2OC3)c1 [Example 2, 2-fluoro-6-(7-(5-methoxypyridin-3-yl)-8-oxo-7,8-dihydro-6H-pyrano[3,2-b:5,4-b′]dipyridin-9-yl)benzonitrile]	0.016	4.50 mg/kg, p.o.	–	2.36	–	–	1.91	148.0	12.1

— US9738656B2, “Pyranodipyridine compound” (Eisai R&D Management Co., Ltd., priority 2015, dated 2017)
